# Measurements from ChEMBL document CHEMBL1201862, “PubChem BioAssay data set” (2004).
#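 Five compound concentrations were applied to cells in 96-well plates for 48 hours; endpoints were derived by simple linear interpolation of the resulting dose-response curve. GI50 marks 50% less growth.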 The source made the active and inactive calls. Cut-off read from the data, not from the text of the source: active = GI50 up to about 1.1 µM and inactive = higher.
# Tests used:
# Experiment in all cases: NCI anticancer screen, dose series, 48 h
# [1] = tested on: SN12C
# [2] = tested on: KM12
# [3] = tested on: BT-549
# [4] = tested on: SK-OV-3
# [5] = tested on: SF-539
# [6] = tested on: HCT-116
# [7] = tested on: OVCAR-8
# [8] = tested on: M14
# [9] = tested on: NCI-H522
# [10] = tested on: DU-145
# [11] = tested on: HL-60
# [12] = tested on: NCI-H23
# [13] = tested on: SW-620
# [14] = tested on: MDA-N
# [15] = tested on: U-251
# [16] = tested on: SNB-75
# [17] = tested on: NCI/ADR-RES
# [18] = tested on: TK-10
# [19] = tested on: NCI-H226
# [20] = tested on: SF-268
# [21] = tested on: MDA-MB-435
# [22] = tested on: SR
# [23] = tested on: Hs-578T
# [24] = tested on: RPMI-8226
# [25] = tested on: PC-3
# [26] = tested on: MOLT-4
# [27] = tested on: NCI-H460
# [28] = tested on: RXF 393
# [29] = tested on: HOP-62
# [30] = tested on: A549
# [31] = tested on: CAKI-1
# [32] = tested on: SK-MEL-28
# [33] = tested on: COLO 205
# [34] = tested on: UACC-62
# [35] = tested on: SK-MEL-5
# [36] = tested on: K562
# [37] = tested on: OVCAR-4
# [38] = tested on: Malme-3M
# [39] = tested on: SF-295
# [40] = tested on: T47D
# [41] = tested on: A498
# [42] = tested on: SK-MEL-2
# [43] = tested on: IGROV-1
# [44] = tested on: MCF7
# [45] = tested on: CCRF-CEM
# [46] = tested on: ACHN
# [47] = tested on: MDA-MB-231
# [48] = tested on: OVCAR-5
# [49] = tested on: SNB-19
# [50] = tested on: HOP-92
# [51] = tested on: EKVX
# [52] = tested on: UACC-257
# [53] = tested on: UO-31
# [54] = tested on: 786-0
# [55] = tested on: OVCAR-3
# [56] = tested on: HCT-15
# [57] = tested on: LOX IMVI
# [58] = tested on: HT-29
compound,measurement,setting,value
COc1cc(NS(C)(=O)=O)ccc1NCc1c[nH]c2ccc3nc(C)ccc3c12,GI50,[1],60.5 µM (inactive)
same,GI50,[2],48.9 µM (inactive)
same,GI50,[3],> 100 µM (inactive)
same,GI50,[4],96.4 µM (inactive)
same,GI50,[5],78.2 µM (inactive)
same,GI50,[6],42.9 µM (inactive)
same,GI50,[7],50.1 µM (inactive)
same,GI50,[8],56.1 µM (inactive)
same,GI50,[9],28.4 µM (inactive)
same,GI50,[10],32.1 µM (inactive)
same,GI50,[11],8.45 µM (inactive)
same,GI50,[12],15.8 µM (inactive)
same,GI50,[13],30.2 µM (inactive)
same,GI50,[14],41.2 µM (inactive)
same,GI50,[15],77.6 µM (inactive)
same,GI50,[16],22.8 µM (inactive)
same,GI50,[17],> 100 µM (inactive)
same,GI50,[18],38.7 µM (inactive)
same,GI50,[19],45.7 µM (inactive)
same,GI50,[20],28.1 µM (inactive)
same,GI50,[21],30.2 µM (inactive)
same,GI50,[22],4.89 µM (inactive)
same,GI50,[23],72.1 µM (inactive)
same,GI50,[24],17.1 µM (inactive)
same,GI50,[25],43.9 µM (inactive)
same,GI50,[26],2.9 µM (inactive)
same,GI50,[27],68.1 µM (inactive)
same,GI50,[28],22.5 µM (inactive)
same,GI50,[29],55.5 µM (inactive)
same,GI50,[30],> 100 µM (inactive)
same,GI50,[31],20.1 µM (inactive)
same,GI50,[32],> 100 µM (inactive)
same,GI50,[33],55 µM (inactive)
same,GI50,[34],40.6 µM (inactive)
same,GI50,[35],42 µM (inactive)
same,GI50,[36],0.594 µM (active)
same,GI50,[37],44.3 µM (inactive)
same,GI50,[38],> 100 µM (inactive)
same,GI50,[39],48.8 µM (inactive)
same,GI50,[40],24.2 µM (inactive)
same,GI50,[41],20.3 µM (inactive)
same,GI50,[42],23.8 µM (inactive)
same,GI50,[43],73.6 µM (inactive)
same,GI50,[44],36.1 µM (inactive)
same,GI50,[45],17.7 µM (inactive)
same,GI50,[46],33.9 µM (inactive)
same,GI50,[47],61.1 µM (inactive)
same,GI50,[48],39.5 µM (inactive)
same,GI50,[49],77.8 µM (inactive)
same,GI50,[50],40.6 µM (inactive)
same,GI50,[51],> 100 µM (inactive)
same,GI50,[52],47.8 µM (inactive)
same,GI50,[53],28.6 µM (inactive)
same,GI50,[54],30.4 µM (inactive)
same,GI50,[55],27.6 µM (inactive)
same,GI50,[56],37.9 µM
same,GI50,[57],49.5 µM (inactive)
same,GI50,[58],49.5 µM (inactive)
